“And” between values parts separate entries of the source, which are not always exact repeats. Equal entries are not always repeated. Inconclusive results and toxic doses are left out.
Test system: BDF1 mice, intracerebral L1210 leukemia, survival T/C
Test: NCI In Vivo Anticancer Drug Screen. Data for tumor model L1210 Leukemia (intracerebral) in B6D2F1 (BDF1) mice
Conditions: endpoint: mean survival time, higher = longer survival
How it was run: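 Transplantable tumour-bearing mice, compound-treated vs vehicle controls; read-out survival, reported as T/C ratio.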

With `C#CCOCC(CCl)OC(=O)Nc1ccccc1` (stereo unspecified) the T/C (dose: 25.0 mg/kg/injection, schedule: Q04DX003 (ip), vehicle: saline with Tween-80) was 100 % of control, the T/C (dose: 50.0 mg/kg/injection, schedule: Q04DX003 (ip), vehicle: saline with Tween-80) was 115 % of control and the T/C (dose: 100.0 mg/kg/injection, schedule: Q04DX003 (ip), vehicle: saline with Tween-80) was 105 % of control. The T/C (dose: 200.0 mg/kg/injection, schedule: Q04DX003 (ip), vehicle: saline with Tween-80) was 109 % of control and the T/C (dose: 400.0 mg/kg/injection, schedule: Q04DX003 (ip), vehicle: saline with Tween-80) was 105 % of control.

In the case of `O=NN(CCCl)C(=O)NC1CCCCC1`, the T/C (dose: 1.0 mg/kg/injection, schedule: Q01DX001 (ip), vehicle: saline) is reported as 101 % of control, the T/C (dose: 1.0 mg/kg/injection, schedule: Q01DX001 (oral), vehicle: saline) is reported as 91 % of control and the T/C (dose: 1.0 mg/kg/injection, schedule: Q01DX Z (ip), vehicle: carboxymethylcellulose (CMC)) is reported as 103 % of control and 116 % of control. For the same molecule, the T/C (dose: 2.0 mg/kg/injection, schedule: Q01DX009 (ip), vehicle: carboxymethylcellulose (CMC)) was 106 % of control, the T/C (dose: 2.0 mg/kg/injection, schedule: Q01DX Z (ip), vehicle: carboxymethylcellulose (CMC)) was 104 % of control and 108 % of control and the T/C (dose: 4.0 mg/kg/injection, schedule: Q01DX Z (ip), vehicle: carboxymethylcellulose (CMC)) was 118 % of control. For the same molecule, the T/C (dose: 5.0 mg/kg/injection, schedule: Q01DX001 (ip), vehicle: carboxymethylcellulose (CMC)) was 115 % of control, the T/C (dose: 5.1 mg/kg/injection, schedule: Q01DX001 (ip), vehicle: carboxymethylcellulose (CMC)) was 111 % of control and 120 % of control and the T/C (dose: 8.0 mg/kg/injection, schedule: Q01DX009 (ip), vehicle: carboxymethylcellulose (CMC)) was 212 % of control. For the same molecule, the T/C (dose: 8.0 mg/kg/injection, schedule: Q01DX Z (ip), vehicle: carboxymethylcellulose (CMC)) was 202 % of control, the T/C (dose: 10.0 mg/kg/injection, schedule: Q01DX001 (ip), vehicle: saline) was 113 % of control and the T/C (dose: 10.0 mg/kg/injection, schedule: Q01DX001 (oral), vehicle: saline) was 115 % of control. For the same molecule, the T/C (dose: 12.0 mg/kg/injection, schedule: Q01DX Z (ip), vehicle: carboxymethylcellulose (CMC)) was 213 % of control, the T/C (dose: 12.5 mg/kg/injection, schedule: Q01DX001 (ip), vehicle: carboxymethylcellulose (CMC)) was 166 % of control and 176 % of control and the T/C (dose: 14.0 mg/kg/injection, schedule: Q01DX001 (ip), vehicle: carboxymethylcellulose (CMC)) was 114 % of control and 122 % of control. For the same molecule, the T/C (dose: 16.0 mg/kg/injection, schedule: Q01DX009 (ip), vehicle: carboxymethylcellulose (CMC)) was 302 % of control, the T/C (dose: 16.0 mg/kg/injection, schedule: Q01DX Z (ip), vehicle: carboxymethylcellulose (CMC)) was 152 % of control and 162 % of control and the T/C (dose: 20.0 mg/kg/injection, schedule: Q01DX001 (ip), vehicle: carboxymethylcellulose (CMC)) was 292 % of control. For the same molecule, the T/C (dose: 24.25 mg/kg/injection, schedule: Q01DX001 (oral), vehicle: carboxymethylcellulose (CMC)) was 266 % of control and 288 % of control and 339 % of control, the T/C (dose: 25.0 mg/kg/injection, schedule: Q01DX001 (ip), vehicle: saline) was 231 % of control and the T/C (dose: 25.0 mg/kg/injection, schedule: Q01DX001 (oral), vehicle: saline) was 243 % of control. For the same molecule, the T/C (dose: 30.0 mg/kg/injection, schedule: Q01DX001 (ip), vehicle: carboxymethylcellulose (CMC)) was 240 % of control and 321 % of control, the T/C (dose: 30.0 mg/kg/injection, schedule: Q01DX001 (ip), vehicle: saline) was 322 % of control and the T/C (dose: 31.0 mg/kg/injection, schedule: Q01DX Z (ip), vehicle: carboxymethylcellulose (CMC)) was 152 % of control. The T/C (dose: 32.0 mg/kg/injection, schedule: Q01DX001 (ip), vehicle: carboxymethylcellulose (CMC)) was 165 % of control and 246 % of control, the T/C (dose: 33.0 mg/kg/injection, schedule: Q01DX001 (ip), vehicle: carboxymethylcellulose (CMC)) was 459 % of control and the T/C (dose: 36.0 mg/kg/injection, schedule: Q01DX001 (ip), vehicle: carboxymethylcellulose (CMC)) was 277 % of control. The T/C (dose: 37.5 mg/kg/injection, schedule: Q01DX001 (ip), vehicle: carboxymethylcellulose (CMC)) was 269 % of control, the T/C (dose: 40.0 mg/kg/injection, schedule: Q01DX001 (ip), vehicle: saline) was 240 % of control and the T/C (dose: 43.0 mg/kg/injection, schedule: Q01DX001 (ip), vehicle: carboxymethylcellulose (CMC)) was 481 % of control and 731 % of control. For the same molecule, the T/C (dose: 45.0 mg/kg/injection, schedule: Q01DX001 (ip), vehicle: carboxymethylcellulose (CMC)) was 189 % of control, the T/C (dose: 48.0 mg/kg/injection, schedule: Q01DX001 (ip), vehicle: carboxymethylcellulose (CMC)) was 274 % of control and 306 % of control and the T/C (dose: 48.5 mg/kg/injection, schedule: Q01DX001 (oral), vehicle: carboxymethylcellulose (CMC)) was 278 % of control and 337 % of control and 420 % of control. For the same molecule, the T/C (dose: 50.0 mg/kg/injection, schedule: Q01DX001 (ip), vehicle: saline) was 218 % of control and 277 % of control, the T/C (dose: 50.0 mg/kg/injection, schedule: Q01DX001 (oral), vehicle: saline) was 255 % of control and the T/C (dose: 55.0 mg/kg/injection, schedule: Q01DX001 (ip), vehicle: carboxymethylcellulose (CMC)) was 473 % of control. For the same molecule, the T/C (dose: 60.0 mg/kg/injection, schedule: Q01DX001 (ip), vehicle: carboxymethylcellulose (CMC)) was 359 % of control and 414 % of control and 463 % of control, the T/C (dose: 60.0 mg/kg/injection, schedule: Q01DX001 (ip), vehicle: saline) was 227 % of control and the T/C (dose: 62.0 mg/kg/injection, schedule: Q01DX Z (ip), vehicle: carboxymethylcellulose (CMC)) was 91 % of control and 94 % of control. The T/C (dose: 70.0 mg/kg/injection, schedule: Q01DX001 (ip), vehicle: carboxymethylcellulose (CMC)) was 267 % of control, the T/C (dose: 70.0 mg/kg/injection, schedule: Q01DX001 (ip), vehicle: saline) was 109 % of control and the T/C (dose: 72.0 mg/kg/injection, schedule: Q01DX001 (ip), vehicle: carboxymethylcellulose (CMC)) was 208 % of control and 284 % of control and 293 % of control. The T/C (dose: 75.0 mg/kg/injection, schedule: Q01DX001 (ip), vehicle: carboxymethylcellulose (CMC)) was 294 % of control, the T/C (dose: 75.0 mg/kg/injection, schedule: Q01DX001 (ip), vehicle: saline) was 276 % of control and the T/C (dose: 75.0 mg/kg/injection, schedule: Q01DX001 (oral), vehicle: saline) was 208 % of control. The T/C (dose: 80.0 mg/kg/injection, schedule: Q01DX001 (ip), vehicle: carboxymethylcellulose (CMC)) was 184 % of control, the T/C (dose: 86.0 mg/kg/injection, schedule: Q01DX001 (ip), vehicle: carboxymethylcellulose (CMC)) was 184 % of control and 211 % of control and the T/C (dose: 97.0 mg/kg/injection, schedule: Q01DX001 (oral), vehicle: carboxymethylcellulose (CMC)) was 120 % of control and 122 % of control. For the same molecule, the T/C (dose: 100.0 mg/kg/injection, schedule: Q01DX001 (ip), vehicle: carboxymethylcellulose (CMC)) was 103 % of control, the T/C (dose: 100.0 mg/kg/injection, schedule: Q01DX001 (ip), vehicle: saline) was 89 % of control and the T/C (dose: 100.0 mg/kg/injection, schedule: Q01DX001 (oral), vehicle: saline) was 102 % of control.

`CCOCCN1CCN(CCCN2c3ccccc3Sc3ccc(C(F)(F)F)cc32)CC1` was tested, and the T/C (dose: 0.78 mg/kg/injection, schedule: Q01DX009 (ip), vehicle: water) was 106 % of control, the T/C (dose: 1.56 mg/kg/injection, schedule: Q01DX009 (ip), vehicle: water) was 103 % of control and the T/C (dose: 25.0 mg/kg/injection, schedule: Q04DX003 (ip), vehicle: water) was 106 % of control.

For `Cc1[nH]c(=O)[nH]c(=O)c1N(CCF)CCCl`, the T/C (dose: 3.5 mg/kg/injection, schedule: Q01DX009 (ip), vehicle: Klucel (hydroxypropylcellulose) (HPC)) was 97 % of control, the T/C (dose: 7.0 mg/kg/injection, schedule: Q01DX009 (ip), vehicle: Klucel (hydroxypropylcellulose) (HPC)) was 88 % of control and the T/C (dose: 14.0 mg/kg/injection, schedule: Q01DX009 (ip), vehicle: Klucel (hydroxypropylcellulose) (HPC)) was 111 % of control. For the same molecule, the T/C (dose: 28.0 mg/kg/injection, schedule: Q01DX009 (ip), vehicle: Klucel (hydroxypropylcellulose) (HPC)) was 94 % of control.

With `O=NN(CCCl)C(=O)NC12CC3CC(CC(C3)C1)C2` the T/C (dose: 26.0 mg/kg/injection, schedule: Q01DX001 (ip), vehicle: carboxymethylcellulose (CMC)) was 108 % of control, the T/C (dose: 40.0 mg/kg/injection, schedule: Q01DX001 (ip), vehicle: carboxymethylcellulose (CMC)) was 112 % of control and the T/C (dose: 90.0 mg/kg/injection, schedule: Q01DX001 (ip), vehicle: carboxymethylcellulose (CMC)) was 120 % of control.

For `O=NN(CCF)C(=O)NC1CC2CCC1C2` (stereo unspecified), the T/C (dose: 5.7 mg/kg/injection, schedule: Q01DX001 (ip), vehicle: other) was 106 % of control, the T/C (dose: 11.5 mg/kg/injection, schedule: Q01DX001 (ip), vehicle: other) was 115 % of control and the T/C (dose: 16.5 mg/kg/injection, schedule: Q01DX001 (ip), vehicle: other) was 162 % of control. The T/C (dose: 23.0 mg/kg/injection, schedule: Q01DX001 (ip), vehicle: other) was 161 % of control, the T/C (dose: 25.0 mg/kg/injection, schedule: Q01DX001 (ip), vehicle: other) was 252 % of control and the T/C (dose: 37.0 mg/kg/injection, schedule: Q01DX001 (ip), vehicle: other) was 274 % of control. The T/C (dose: 37.5 mg/kg/injection, schedule: Q01DX001 (ip), vehicle: other) was 321 % of control, the T/C (dose: 46.0 mg/kg/injection, schedule: Q01DX001 (ip), vehicle: other) was 309 % of control and the T/C (dose: 70.0 mg/kg/injection, schedule: Q01DX001 (ip), vehicle: other) was 312 % of control. For the same molecule, the T/C (dose: 126.0 mg/kg/injection, schedule: Q01DX001 (ip), vehicle: other) was 312 % of control.

From PubChem BioAssay AID252 (DTP/NCI, 2004)
